Values of other authors as cited in publication PMC8468039, “Development of New Meridianin/Leucettine-Derived Hybrid Small Molecules as Nanomolar Multi-Kinase Inhibitors with Antitumor Activity” (Biomedicines, 2021).

What was measured:
Details in all cases: cited from earlier work
DYRK-1A = tested on: DYRK-1A; parameters: method as in PMID 21615147, PMID 19879673, PMID 22998443
DYRK-2 = tested on: DYRK-2; parameters: method as in PMID 21615147, PMID 19879673, PMID 22998443
CLK-1 = tested on: CLK-1; parameters: method as in PMID 21615147, PMID 19879673, PMID 22998443
CLK-3 = tested on: CLK-3; parameters: method as in PMID 8383730, PMID 21615147, PMID 19879673, PMID 22998443

CN1C(=O)/C(=C/c2ccc3c(c2)OCO3)N=C1N [leucettamine B, Leucettamine B]
IC50 (DYRK-1A): 2.8 µM | IC50 (DYRK-2): 1.5 µM | IC50 (CLK-1): 0.4 µM | IC50 (CLK-3): 6.4 µM
